IC50 data for 43 molecules are collected here from US11701354B2, “Pyrazolo[3,4-b]pyrazine derivatives as SHP2 phosphatase inhibitors” (Relay Therapeutics, Inc., priority 2017, dated 2023).

pIC50: −log10 of the molar value.

For orientation: pIC50 means the negative decadic logarithm of the IC50, by convention in mol/L. A lower pIC50 goes with a large IC50.

In this test the target is SHP2 (Homo sapiens (Human), UniProt Q06124). The test is described as follows: SHP2 Allosteric Inhibition Assay (DiFMUP prompt fluorescence). The following applies: 0.25 nM SHP2 activated with 0.5 μM peptide IRS1_pY1172(dPEG8)pY1222; substrate DiFMUP 100 μM. The class given is biochemical. The text has this: SHP2 Allosteric Inhibition Assay.
SHP2, sequence (Q06124 whole entry): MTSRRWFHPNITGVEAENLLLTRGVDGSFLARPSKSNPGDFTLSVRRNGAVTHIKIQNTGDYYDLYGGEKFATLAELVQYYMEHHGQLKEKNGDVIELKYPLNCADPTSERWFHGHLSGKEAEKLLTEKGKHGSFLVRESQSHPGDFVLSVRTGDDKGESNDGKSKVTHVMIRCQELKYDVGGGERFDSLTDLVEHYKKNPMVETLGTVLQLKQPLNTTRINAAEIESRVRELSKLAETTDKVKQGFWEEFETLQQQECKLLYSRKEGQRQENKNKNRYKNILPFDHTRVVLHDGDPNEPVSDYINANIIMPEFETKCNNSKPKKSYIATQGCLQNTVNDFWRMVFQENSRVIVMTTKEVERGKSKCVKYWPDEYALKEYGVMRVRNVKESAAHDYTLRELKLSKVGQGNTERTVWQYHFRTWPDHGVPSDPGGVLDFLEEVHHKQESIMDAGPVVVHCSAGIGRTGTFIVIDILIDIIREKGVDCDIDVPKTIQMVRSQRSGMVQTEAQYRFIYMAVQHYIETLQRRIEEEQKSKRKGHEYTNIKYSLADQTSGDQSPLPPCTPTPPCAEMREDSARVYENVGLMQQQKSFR
SHP2 is allosterically activated through binding of bis-tyrosyl-phorphorylated peptides to its Src Homology 2 (SH2) domains. The latter activation step leads to the release of the auto-inhibitory interface of SHP2, which in turn renders the SHP2 protein tyrosine phosphatase (PTP) active and available for substrate recognition and reaction catalysis. The catalytic activity of SHP2 was monitored using the surrogate substrate DiFMUP in a prompt fluorescence assay format.
More specifically, the phosphatase reactions were performed at room temperature in 96-well black polystyrene plate, flat bottom, low flange, non-binding surface (Corning, Cat #3575) using a final reaction volume of 50 μl and the following assay buffer conditions: 60 mM HEPES, pH 7.2, 75 mM NaCl, 75 mM KCl, 1 mM EDTA 0.005% Brij-35, 5 mM DTT.
The inhibition of SHP2 by compounds of the disclosure (concentrations varying from 0.003-100 μM) was monitored using an assay in which 0.25 nM of SHP2 was incubated with of 0.5 μM of peptide IRSl_pY1172(dPEG8)pY1222 (sequence: H2N-LN(pY)IDLDLV(dPEG8)LST(pY)ASINFQK-amide). After 30-60 minutes incubation at 25° C. the surrogate substrate DiFMUP (Invitrogen, cat #D6567, 100 μM final) was added to the reaction and the conversion of DiFMUP to 6,8-difluoro-7-hydroxyl-4-methylcoumarin (DiFMU) was monitored continuously for 10 minutes with excitation at 355 nm and emission at 460 nm using a microplate reader (PolarStar, BMG). The inhibitor dose response curves were analyzed using normalized IC50 regression curve fitting with control based normalization.
Biochemical assay results for compounds of the disclosure are shown in examples and Table 1. In Table 1, A means an IC50 of less than 1 μM: B means an IC50 equal to 1 μM but less than 10 μM; and C means an IC50 of 10 μM or more.
In turn, `CN(c1cnc2c(-c3cccc(Cl)c3F)n[nH]c2n1)[C@H]1CCC[C@H]1N` (mixture of isomers) [Example 1] had a pIC50 of 5.00 to 6.00. `N[C@@H]1CCCC[C@H]1Nc1cnc2c(-c3cccc(Cl)c3F)n[nH]c2n1` (mixture of isomers) [Example 5] showed a pIC50 of 5.00 to 6.00. In the case of `NC[C@H]1CCCC[C@H]1Nc1cnc2c(-c3cccc(Cl)c3F)n[nH]c2n1` (mixture of isomers) [Example 13], the pIC50 was greater than 6.00. Regarding `NC[C@H]1CCCC[C@@H]1Nc1cnc2c(-c3cccc(Cl)c3F)n[nH]c2n1` (mixture of isomers) [Example 14], the negative logarithm of the IC50 (pIC50) was greater than 6.00.

`CN(c1cnc2c(-c3cccc(Cl)c3F)n[nH]c2n1)[C@H]1CCCC[C@@H]1N` (mixture of isomers) [Example 19] showed a pIC50 greater than 6.00. Consider `CN(c1cnc2c(-c3cccc(Cl)c3F)n[nH]c2n1)[C@H]1CCCC[C@H]1N` (mixture of isomers) [Example 20], for which the pIC50 is greater than 6.00. For the molecule `N[C@@H]1CCCC[C@@H]1Nc1cnc2c(-c3cccc(Cl)c3F)n[nH]c2n1` (single isomer, unassigned) [Example 7], the negative-log IC50 (pIC50) is 5.00 to 6.00. For the molecule `CN(c1cnc2c(N3CCCc4ncccc43)n[nH]c2n1)[C@@H]1CCC[C@@H]1N` (single isomer, unassigned) [Example 8], the pIC50 is 5.00 to 6.00. Next, `CN(c1cnc2c(N3CCCc4ncccc43)n[nH]c2n1)[C@@H]1COC[C@@H]1N` (single isomer, unassigned) [Example 10]: no more than 5.00; `CN(c1cnc2c(N3CCCc4ncccc43)n[nH]c2n1)[C@H]1COC[C@H]1N` (single isomer, unassigned) [Example 11]: no more than 5.00; `NC[C@@H]1CCCC[C@@H]1Nc1cnc2c(-c3cccc(Cl)c3F)n[nH]c2n1` (single isomer, unassigned) [Example 15]: greater than 6.00. On to `NC[C@H]1CCCC[C@H]1Nc1cnc2c(-c3cccc(Cl)c3F)n[nH]c2n1` (single isomer, unassigned) [Example 17], for which the pIC50 was 5.00 to 6.00. In turn, `NC[C@@H]1CCCC[C@H]1Nc1cnc2c(-c3cccc(Cl)c3F)n[nH]c2n1` (single isomer, unassigned) [Example 18] showed a pIC50 of 5.00 to 6.00.

`CN(c1cnc2c(-c3cccc(Cl)c3F)n[nH]c2n1)[C@H]1CCCC[C@@H]1N` (single isomer, unassigned) [Example 23] had a pIC50 of 5.00 to 6.00. Regarding `CN(c1cnc2c(-c3cccc(Cl)c3F)n[nH]c2n1)[C@@H]1CCCC[C@H]1N` (single isomer, unassigned) [Example 24], the pIC50 is greater than 6.00. On to `CN(c1cnc2c(-c3cccc(Cl)c3F)n[nH]c2n1)[C@@H]1CCC[C@@H]1CN` (single isomer, unassigned) [Example 26], for which the pIC50 was greater than 6.00. For the molecule `CN(c1cnc2c(-c3cccc(Cl)c3F)n[nH]c2n1)[C@H]1CCC[C@@H]1CN` (single isomer, unassigned) [Example 27], the pIC50 is greater than 6.00. Next, `CN(c1cnc2c(-c3cccc(Cl)c3F)n[nH]c2n1)[C@H]1CCC[C@H]1CN` (single isomer, unassigned) [Example 28]: greater than 6.00; `CN(c1cnc2c(-c3cccc(Cl)c3F)n[nH]c2n1)[C@@H]1CCC[C@H]1CN` (single isomer, unassigned) [Example 29]: greater than 6.00; `CN(C[C@@H]1CCC[C@H]1N)c1cnc2c(N3CCCc4ncccc43)n[nH]c2n1` (single isomer, unassigned) [Example 31]: no more than 5.00. As for `CN(C[C@H]1CCC[C@@H]1N)c1cnc2c(N3CCCc4ncccc43)n[nH]c2n1` (single isomer, unassigned) [Example 32], the pIC50 is no more than 5.00. Molecule `CN(c1cnc2c(N3CCCc4ncccc43)n[nH]c2n1)[C@@H]1CCCC[C@@H]1N` (single isomer, unassigned) [Example 34] gave a pIC50 of 5.00 to 6.00.

Take `CN(c1cnc2c(-c3cccc(Cl)c3F)n[nH]c2n1)[C@@H]1CCC[C@H]1N` [Example 2]: the pIC50 was greater than 6.00. With `CN(c1cnc2c(-c3cccc(Cl)c3F)n[nH]c2n1)[C@H]1CCC[C@@H]1N` [Example 3], the pIC50 was greater than 6.00. Next, `CN(c1cnc2c(-c3cccc(Cl)c3F)n[nH]c2n1)[C@@H]1CCC[C@@H]1N` [Example 4]: greater than 6.00; `N[C@H]1CCCC[C@@H]1Nc1cnc2c(-c3cccc(Cl)c3F)n[nH]c2n1` [Example 6]: 5.00 to 6.00.

The molecule `CN(c1cnc2c(N3CCCc4ncccc43)n[nH]c2n1)[C@H]1CCC[C@H]1N` [Example 9] showed a pIC50 of no more than 5.00. The molecule `CN(c1cnc2c(-c3cccc(Cl)c3F)n[nH]c2n1)[C@@H]1CCCC[C@@H]1N` [Example 21] had a pIC50 greater than 6.00.

For `CN(C[C@H]1CC[C@H](N)C1)c1cnc2c(-c3cccc(Cl)c3F)n[nH]c2n1` [Example 25], the pIC50 was greater than 6.00. Turning to `CN(c1cnc2c(-c3ccnc(Cl)c3F)n[nH]c2n1)[C@@H]1CCCC[C@@H]1N` [Example 30], the pIC50 is greater than 6.00. The value for `CN(c1cnc2c(N3CCCc4ncccc43)n[nH]c2n1)[C@H]1CCCC[C@H]1N` [Example 33] was no more than 5.00. `CN(c1cnc2c(N3CCCc4ncccc43)n[nH]c2n1)[C@@H]1COCC[C@@H]1N` [Example 35] had a pIC50 of no more than 5.00. The molecule `CN(c1cnc2c(N3CCCc4ncccc43)n[nH]c2n1)[C@@H]1CCOC[C@@H]1N` [Example 36] had a pIC50 of 5.00 to 6.00. `CN(c1cnc2c(N3CCCc4ncccc43)n[nH]c2n1)[C@H]1CCOC[C@H]1N` [Example 37] showed a pIC50 of no more than 5.00. The value for `CN(c1cnc2c(-c3cccc(Cl)c3F)n[nH]c2n1)[C@@H]1CCCC[C@H]1CN` [Example 38] was greater than 6.00; that for `CN(c1cnc2c(-c3cccc(Cl)c3F)n[nH]c2n1)[C@H]1CCCC[C@H]1CN` [Example 39] was greater than 6.00; that for `CN(c1cnc2c(-c3cccc(Cl)c3F)n[nH]c2n1)[C@H]1CCCC[C@@H]1CN` [Example 40] was greater than 6.00. The value for `CN(c1cnc2c(-c3cccc(Cl)c3F)n[nH]c2n1)[C@@H]1CCCC[C@@H]1CN` [Example 41] was greater than 6.00; that for `CN(c1cnc2c(Sc3ccccc3Cl)n[nH]c2n1)[C@@H]1CCCC[C@@H]1N` [Example 42] was greater than 6.00. The value for `CN(c1cnc2c(Sc3ccnc4[nH]ccc34)n[nH]c2n1)[C@@H]1CCCC[C@@H]1N` [Example 43] was greater than 6.00; that for `CN(c1cnc2c(Oc3ccnc(Cl)c3Cl)n[nH]c2n1)[C@H]1CCCC[C@H]1N` [Example 44] was 5.00 to 6.00; that for `CN(c1cnc2c(Oc3ccnc(Cl)c3Cl)n[nH]c2n1)[C@@H]1CCCC[C@@H]1N` [Example 45] was greater than 6.00. Consider `CN(c1cnc2c(N3CCc4c(C(N)=O)cccc43)n[nH]c2n1)[C@@H]1CCCC[C@@H]1N` [Example 46], for which the pIC50 was greater than 6.00.
